# Results: ChEMBL document CHEMBL3792356, “Discovery of molluscicidal and cercaricidal activities of 3-substituted quinazolinone derivatives by a scaffold hopping approach using a pseudo-ring based on the intramolecular hydrogen bond formation” (Eur J Med Chem, 2016)
# Legend:
# Oncomelania hupensis = assay: Molluscicidal activity against Oncomelania hupensis measured after 24 hrs; type: functional; details: for LC50: Oncomelania hupensis, 24 h
# Schistosoma japonicum = assay: Cercaricidal activity against Schistosoma japonicum infected in Oncomelania hupensis measured after 120 mins by colour television microscopy; type: functional; details: for LC50: Schistosoma japonicum, 2 h
# [1] = Toxicity in tadpole assessed as lethality at 10 ppm measured after 12 hrs; type: organism-based; details: anura, in vivo
# [2] = Toxicity in tadpole assessed as lethality at 5 ppm measured after 12 hrs; type: organism-based; details: anura, in vivo
# [3] = Toxicity in tadpole assessed as lethality at 2.5 ppm measured after 12 hrs; type: organism-based; details: anura, in vivo
# [4] = Toxicity in tadpole assessed as lethality at 1.25 ppm measured after 12 hrs; type: organism-based; details: anura, in vivo
# [5] = Toxicity in tadpole assessed as lethality at 0.625 ppm measured after 12 hrs; type: organism-based; details: anura, in vivo
# [6] = Toxicity in tadpole assessed as lethality at 0.3125 ppm measured after 12 hrs; type: organism-based; details: anura, in vivo
# [7] = Toxicity in tadpole assessed as lethality at 10 ppm measured after 24 hrs; type: organism-based; details: anura, in vivo
# [8] = Toxicity in tadpole assessed as lethality at 5 ppm measured after 24 hrs; type: organism-based; details: anura, in vivo
# [9] = Toxicity in tadpole assessed as lethality at 2.5 ppm measured after 24 hrs; type: organism-based; details: anura, in vivo
# [10] = Toxicity in tadpole assessed as lethality at 1.25 ppm measured after 24 hrs; type: organism-based; details: anura, in vivo
# [11] = Toxicity in tadpole assessed as lethality at 0.625 ppm measured after 24 hrs; type: organism-based; details: anura, in vivo
# [12] = Toxicity in tadpole assessed as lethality at 0.3125 ppm measured after 24 hrs; type: organism-based; details: anura, in vivo
# [13] = Toxicity in tadpole assessed as lethality at 10 ppm measured after 48 hrs; type: organism-based; details: anura, in vivo
# [14] = Toxicity in tadpole assessed as lethality at 5 ppm measured after 48 hrs; type: organism-based; details: anura, in vivo
# [15] = Toxicity in tadpole assessed as lethality at 2.5 ppm measured after 48 hrs; type: organism-based; details: anura, in vivo
# [16] = Toxicity in tadpole assessed as lethality at 1.25 ppm measured after 48 hrs; type: organism-based; details: anura, in vivo
# [17] = Toxicity in tadpole assessed as lethality at 0.625 ppm measured after 48 hrs; type: organism-based; details: anura, in vivo
# [18] = Toxicity in tadpole assessed as lethality at 0.3125 ppm measured after 48 hrs; type: organism-based; details: anura, in vivo
# [19] = Toxicity in tadpole assessed as lethality at 10 ppm measured after 72 hrs; type: organism-based; details: anura, in vivo
# [20] = Toxicity in tadpole assessed as lethality at 5 ppm measured after 72 hrs; type: organism-based; details: anura, in vivo
# [21] = Toxicity in tadpole assessed as lethality at 2.5 ppm measured after 72 hrs; type: organism-based; details: anura, in vivo
# [22] = Toxicity in tadpole assessed as lethality at 1.25 ppm measured after 72 hrs; type: organism-based; details: anura, in vivo
# [23] = Toxicity in tadpole assessed as lethality at 0.625 ppm measured after 72 hrs; type: organism-based; details: anura, in vivo
# [24] = Toxicity in tadpole assessed as lethality at 0.3125 ppm measured after 72 hrs; type: organism-based; details: anura, in vivo
# [25] = Toxicity in tadpole assessed as lethality at 10 ppm measured after 96 hrs; type: organism-based; details: anura, in vivo
# [26] = Toxicity in tadpole assessed as lethality at 5 ppm measured after 96 hrs; type: organism-based; details: anura, in vivo
# [27] = Toxicity in tadpole assessed as lethality at 2.5 ppm measured after 96 hrs; type: organism-based; details: anura, in vivo
# [28] = Toxicity in tadpole assessed as lethality at 1.25 ppm measured after 96 hrs; type: organism-based; details: anura, in vivo
# [29] = Toxicity in tadpole assessed as lethality at 0.625 ppm measured after 96 hrs; type: organism-based; details: anura, in vivo
# [30] = Toxicity in tadpole assessed as lethality at 0.3125 ppm measured after 96 hrs; type: organism-based; details: anura, in vivo
# [31] = Toxicity in tadpole assessed as lethality at 10 ppm measured after 120 hrs; type: organism-based; details: anura, in vivo
# [32] = Toxicity in tadpole assessed as lethality at 5 ppm measured after 120 hrs; type: organism-based; details: anura, in vivo
# [33] = Toxicity in tadpole assessed as lethality at 2.5 ppm measured after 120 hrs; type: organism-based; details: anura, in vivo
# [34] = Toxicity in tadpole assessed as lethality at 1.25 ppm measured after 120 hrs; type: organism-based; details: anura, in vivo
# [35] = Toxicity in tadpole assessed as lethality at 0.625 ppm measured after 120 hrs; type: organism-based; details: anura, in vivo
# [36] = Toxicity in tadpole assessed as lethality at 0.3125 ppm measured after 120 hrs; type: organism-based; details: anura, in vivo
smiles,measurement,setting,value
Cc1ccc(-n2cnc3c(Cl)cc(Cl)cc3c2=O)cc1,LC90,Oncomelania hupensis,6.21 ppm
same,LC50,Oncomelania hupensis,4.71 µg/mL
same,LC90,Schistosoma japonicum,1.57 ppm
same,LC50,Schistosoma japonicum,1.19 µg/mL
Cc1ccc(-n2cnc3ccc(Cl)cc3c2=O)c(C)c1,LC90,Oncomelania hupensis,5.75 ppm
same,LC50,Oncomelania hupensis,4.36 µg/mL
same,LC90,Schistosoma japonicum,1.45 ppm
same,LC50,Schistosoma japonicum,1.1 µg/mL
O=c1c2cc(Cl)cc(Cl)c2ncn1-c1ccccc1,LC90,Oncomelania hupensis,8.71 ppm
same,LC50,Oncomelania hupensis,6.61 µg/mL
same,LC90,Schistosoma japonicum,2.19 ppm
same,LC50,Schistosoma japonicum,1.66 µg/mL
COc1ccc(-n2cnc3c(Cl)cc(Cl)cc3c2=O)cc1,LC90,Oncomelania hupensis,13.18 ppm
same,LC50,Oncomelania hupensis,10 µg/mL
same,LC90,Schistosoma japonicum,3.31 ppm
same,LC50,Schistosoma japonicum,2.51 µg/mL
Cc1ccc(-n2cnc3ccc([N+](=O)[O-])cc3c2=O)cc1,LC90,Oncomelania hupensis,7.58 ppm
same,LC50,Oncomelania hupensis,5.75 µg/mL
same,LC90,Schistosoma japonicum,1.91 ppm
same,LC50,Schistosoma japonicum,1.45 µg/mL
CCCn1cnc2ccc(Cl)cc2c1=O,LC90,Oncomelania hupensis,>100 ppm
same,LC50,Oncomelania hupensis,> 100 µg/mL
same,LC90,Schistosoma japonicum,>50 ppm
same,LC50,Schistosoma japonicum,> 50 µg/mL
COc1cc(-n2cnc3ccc([N+](=O)[O-])cc3c2=O)cc(OC)c1OC,LC90,Oncomelania hupensis,6.61 ppm
same,LC50,Oncomelania hupensis,5.01 µg/mL
same,LC90,Schistosoma japonicum,1.66 ppm
same,LC50,Schistosoma japonicum,1.26 µg/mL
Cc1ccc(-n2cnc3c(Cl)cc(Cl)cc3c2=O)c(C)c1,LC90,Oncomelania hupensis,7.08 ppm
same,LC50,Oncomelania hupensis,5.37 µg/mL
same,LC90,Schistosoma japonicum,1.78 ppm
same,LC50,Schistosoma japonicum,1.35 µg/mL
O=c1c2cc([N+](=O)[O-])ccc2ncn1-c1ccccc1,LC90,Oncomelania hupensis,9.33 ppm
same,LC50,Oncomelania hupensis,7.07 µg/mL
same,LC90,Schistosoma japonicum,2.34 ppm
same,LC50,Schistosoma japonicum,1.78 µg/mL
CN(C)c1ccc(-n2cnc3c(Cl)cc(Cl)cc3c2=O)cc1,LC90,Oncomelania hupensis,8.13 ppm
same,LC50,Oncomelania hupensis,6.17 µg/mL
same,LC90,Schistosoma japonicum,2.04 ppm
same,LC50,Schistosoma japonicum,1.55 µg/mL
COc1ccc(-n2cnc3c(Cl)cc(Cl)cc3c2=O)c(OC)c1,LC90,Oncomelania hupensis,8.62 ppm
same,LC50,Oncomelania hupensis,6.55 µg/mL
same,LC90,Schistosoma japonicum,2.15 ppm
same,LC50,Schistosoma japonicum,1.64 µg/mL
Cc1ccc(-n2cnc3ccc(Cl)cc3c2=O)cc1,LC90,Oncomelania hupensis,5.37 ppm
same,LC50,Oncomelania hupensis,4.07 µg/mL
same,LC90,Schistosoma japonicum,1.35 ppm
same,LC50,Schistosoma japonicum,1.02 µg/mL
COc1cc(-n2cnc3ccc(Cl)cc3c2=O)cc(OC)c1OC,LC90,Oncomelania hupensis,3.55 ppm
same,LC50,Oncomelania hupensis,2.69 µg/mL
same,LC90,Schistosoma japonicum,0.89 ppm
same,LC50,Schistosoma japonicum,0.68 µg/mL
same,"mortality at 12 h, 10 ppm",[1],0%
same,"mortality at 12 h, 5 ppm",[2],0%
same,"mortality at 12 h, 2.5 ppm",[3],0%
same,"mortality at 12 h, 1.25 ppm",[4],0%
same,"mortality at 12 h, 0.625 ppm",[5],0%
same,"mortality at 12 h, 0.3125 ppm",[6],0%
same,"mortality at 24 h, 10 ppm",[7],0%
same,"mortality at 24 h, 5 ppm",[8],0%
same,"mortality at 24 h, 2.5 ppm",[9],0%
same,"mortality at 24 h, 1.25 ppm",[10],0%
same,"mortality at 24 h, 0.625 ppm",[11],0%
same,"mortality at 24 h, 0.3125 ppm",[12],0%
same,"mortality at 48 h, 10 ppm",[13],10%
same,"mortality at 48 h, 5 ppm",[14],0%
same,"mortality at 48 h, 2.5 ppm",[15],0%
same,"mortality at 48 h, 1.25 ppm",[16],0%
same,"mortality at 48 h, 0.625 ppm",[17],0%
same,"mortality at 48 h, 0.3125 ppm",[18],0%
same,"mortality at 72 h, 10 ppm",[19],10%
same,"mortality at 72 h, 5 ppm",[20],0%
same,"mortality at 72 h, 2.5 ppm",[21],0%
same,"mortality at 72 h, 1.25 ppm",[22],0%
same,"mortality at 72 h, 0.625 ppm",[23],0%
same,"mortality at 72 h, 0.3125 ppm",[24],0%
same,"mortality at 96 h, 10 ppm",[25],20%
same,"mortality at 96 h, 5 ppm",[26],10%
same,"mortality at 96 h, 2.5 ppm",[27],0%
same,"mortality at 96 h, 1.25 ppm",[28],0%
same,"mortality at 96 h, 0.625 ppm",[29],0%
same,"mortality at 96 h, 0.3125 ppm",[30],0%
same,"mortality at 120 h, 10 ppm",[31],20%
same,"mortality at 120 h, 5 ppm",[32],10%
same,"mortality at 120 h, 2.5 ppm",[33],0%
same,"mortality at 120 h, 1.25 ppm",[34],0%
same,"mortality at 120 h, 0.625 ppm",[35],0%
same,"mortality at 120 h, 0.3125 ppm",[36],0%
COc1cc(-n2cnc3c(Cl)cc(Cl)cc3c2=O)cc(OC)c1OC,LC90,Oncomelania hupensis,12.95 ppm
same,LC50,Oncomelania hupensis,9.95 µg/mL
same,LC90,Schistosoma japonicum,3.28 ppm
same,LC50,Schistosoma japonicum,2.49 µg/mL
COc1ccc(-n2cnc3ccc(Cl)cc3c2=O)c(OC)c1,LC90,Oncomelania hupensis,4.97 ppm
same,LC50,Oncomelania hupensis,3.78 µg/mL
same,LC90,Schistosoma japonicum,1.19 ppm
same,LC50,Schistosoma japonicum,0.91 µg/mL
COc1cc([N+](=O)[O-])ccc1-n1cnc2c(Cl)cc(Cl)cc2c1=O,LC90,Oncomelania hupensis,7.03 ppm
same,LC50,Oncomelania hupensis,5.34 µg/mL
same,LC90,Schistosoma japonicum,1.72 ppm
same,LC50,Schistosoma japonicum,1.31 µg/mL
NCCO.O=C(Nc1ccc([N+](=O)[O-])cc1Cl)c1cc(Cl)ccc1O,LC90,Oncomelania hupensis,<1 ppm
same,LC50,Oncomelania hupensis,< 1 µg/mL
same,LC90,Schistosoma japonicum,<0.1 ppm
same,LC50,Schistosoma japonicum,< 0.1 µg/mL
O=c1c2cc(Cl)cc(Cl)c2ncn1-c1ccc([N+](=O)[O-])cc1,LC90,Oncomelania hupensis,6.11 ppm
same,LC50,Oncomelania hupensis,4.65 µg/mL
same,LC90,Schistosoma japonicum,1.52 ppm
same,LC50,Schistosoma japonicum,1.15 µg/mL
COc1ccc(-n2cnc3ccc(Cl)cc3c2=O)cc1,LC90,Oncomelania hupensis,5.01 ppm
same,LC50,Oncomelania hupensis,3.8 µg/mL
same,LC90,Schistosoma japonicum,1.23 ppm
same,LC50,Schistosoma japonicum,0.95 µg/mL
O=c1c2cc(Cl)ccc2ncn1-c1ccccc1,LC90,Oncomelania hupensis,6.16 ppm
same,LC50,Oncomelania hupensis,4.68 µg/mL
same,LC90,Schistosoma japonicum,1.55 ppm
same,LC50,Schistosoma japonicum,1.17 µg/mL
O=c1c2cc(Cl)ccc2ncn1C1CCCCC1,LC90,Oncomelania hupensis,>100 ppm
same,LC50,Oncomelania hupensis,> 100 µg/mL
same,LC90,Schistosoma japonicum,>50 ppm
same,LC50,Schistosoma japonicum,> 50 µg/mL
